Source: patent US10676518B1, “A4B2 nicotinic acetylcholine receptors with reduced or increased nicotine sensitivity and transgenic mouse model for the same” (University of Puerto Rico, priority 2015, dated 2020)
Marks after values point to notes of the source that are not given here.

Assays:
Assay type in all cases: cell-based, Rattus norvegicus
[1] = system: α4β2 nAChRs expressed in Xenopus laevis oocytes; test: Two-electrode voltage clamp, nicotine-induced currents in oocytes; set-up: key to Nicotine EC50 (μM) / Nicotine Hill Coef. / Nicotine Peak Current (nA): (n/f) non-functional; (n/e) no-expression; key to Nicotine sensitivity mark of the mutation: Mutations highlighted in green (‡) exhibit hypersensitivity to nicotine; those in red (¶) exhibit agonist selectivity evidenced by their remarkable reductions in sensitivity to nicotine; settings: for Nicotine Hill Coef. / Nicotine Peak Current (nA) / receptor function with nicotine / Nicotine EC50 (μM) / nicotine-induced macroscopic peak current compared with WT: nicotine as agonist; for Nicotine Peak Current (nA) / Nicotine EC50 (μM): mean ± SEM of 6-17 oocytes; for receptor function with nicotine / nicotine-induced macroscopic peak current compared with WT: in words; for Nicotine EC50 (μM): −70 mV; for Nicotine sensitivity mark of the mutation: footnote mark beside the mutation
Experimental: (§1) Single point mutations were prepared using the Quickchange™ Site-Directed Mutagenesis Kit (Stratagene, La Jolla, Calif.). The template used for the PCR reaction was the pGEMHE vector with Rattus norvegicus cDNA coding for the α4 neuronal nAChR subunit. DNA was purified using a QIAprep spin miniprep kit (Quiagen, Germantown, Md.) and then sequenced to confirm the incorporation of each mutation. A total of 11 residues in the cytoplasmic loop of the α4 subunit were chosen to be mutated: S364, T417, S438, S469, S471, S490, S504, S516, T536, Y576, and S589. Each residue was mutated to alanine (A) and aspartic acid (D).
(§2) Each subunit encoding mRNA was synthesized in vitro from linearized pGEMHE plasmid templates of Rattus norvegicus cDNA coding for α4 and β2 nAChR subunits using the mMessage mMachine RNA transcription kit (Ambion, Austin, Tex.). mRNA mixtures of α4 and β2 subunits were prepared at 2 μg:3 μg ratio, and 32.2 nL of this mixture was microinjected into each oocyte. The mRNA mixture was microinjected, using a displacement injector (Drummond Instruments, Broomhall, Pa.), into stage V and VI oocytes that had been extracted, incubated in collagenase Type 1A (Sigma, St. Louis, Mo.), and defolliculated by manual dissection. The injected oocytes were incubated at 19° C. for 3-4 days in ND-96 medium supplemented with albumin, gentamicin, tetracycline, and theophyline. Electrophysiological experiments were performed after the third or fourth day of mRNA injection.
(§3) Oocytes injected with the mRNA transcripts of α4 and β2 subunits were characterized using a two-electrode voltage clamp. ACh- and nicotine-induced currents were recorded at 20° C., 3-4 days after mRNA injection, with a GeneClamp 500B Amplifier (Axon Instruments, Foster City, Calif.). […] All the reagents used were purchased from Sigma-Aldrich, Co. (St. Louis, Mo.). For dose-response curves, each oocyte was held at a membrane potential of −70 mV. Membrane currents were digitized using the DigiData 1322A interface (Axon Instruments, Foster City, Calif.), filtered at 2 kHz during recording. The Clampex 10.0 software running on a Pentium 4-based computer was used for data acquisition. Data analysis was via Prism 3.0 (Graphpad Software, San Diego, Calif.). Dose-response data for the α4β2 combination were collected using seven ACh doses (0.1, 1, 3, 10, 30, 100, and a seventh concentration ranging from 300 to 1000 μM depending on the mutant) and seven nicotine concentrations (0.1, 1, 3, 10, 30, 100, 300 μM). The data were fitted using a one-component sigmoidal dose-response equation, Y=I/ImaxBottom+(I/ImaxTop−I/ImaxBottom)/(1+10^((Log EC50−X)×HillSlope)) where X is the logarithm of concentration and Y is the response.
Target sequence in this assay (P09483 31-333 limits assumed): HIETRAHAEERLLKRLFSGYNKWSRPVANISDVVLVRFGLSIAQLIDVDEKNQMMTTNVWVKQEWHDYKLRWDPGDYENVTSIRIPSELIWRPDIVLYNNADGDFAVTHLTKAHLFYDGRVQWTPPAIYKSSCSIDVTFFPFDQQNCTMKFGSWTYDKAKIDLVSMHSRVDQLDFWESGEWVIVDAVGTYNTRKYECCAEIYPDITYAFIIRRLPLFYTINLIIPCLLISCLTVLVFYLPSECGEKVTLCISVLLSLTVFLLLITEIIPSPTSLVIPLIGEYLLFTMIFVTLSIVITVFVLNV
Target sequence in this assay (P12390 25-500, further chain): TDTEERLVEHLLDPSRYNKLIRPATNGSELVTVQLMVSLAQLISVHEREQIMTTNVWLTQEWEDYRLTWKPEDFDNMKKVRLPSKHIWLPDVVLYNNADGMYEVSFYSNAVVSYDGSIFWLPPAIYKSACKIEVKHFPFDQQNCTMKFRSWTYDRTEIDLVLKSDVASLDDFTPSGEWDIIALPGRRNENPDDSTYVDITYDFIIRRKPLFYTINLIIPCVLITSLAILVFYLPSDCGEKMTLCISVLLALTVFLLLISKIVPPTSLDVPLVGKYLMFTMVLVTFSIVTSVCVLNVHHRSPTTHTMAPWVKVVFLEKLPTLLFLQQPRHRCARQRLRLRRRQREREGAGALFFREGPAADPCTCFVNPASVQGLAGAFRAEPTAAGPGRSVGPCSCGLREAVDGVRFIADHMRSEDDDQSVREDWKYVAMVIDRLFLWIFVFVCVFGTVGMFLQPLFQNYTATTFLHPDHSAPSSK

[2] = system: α4β2 nAChRs expressed in Xenopus laevis oocytes; test: Two-electrode voltage clamp, ACh-induced currents in oocytes; set-up: key to ACh EC50 (μM) / ACh Hill Coef. / ACh Peak Current (nA): (n/f) non-functional; (n/e) no-expression; settings: ACh as agonist; for ACh Peak Current (nA) / ACh EC50 (μM): mean ± SEM of 6-17 oocytes; for ACh-induced macroscopic peak current compared with WT / receptor function with ACh: in words; for ACh EC50 (μM): −70 mV
Experimental: as §1, §2, §3
Target sequence in this assay (P09483 31-249 limits assumed): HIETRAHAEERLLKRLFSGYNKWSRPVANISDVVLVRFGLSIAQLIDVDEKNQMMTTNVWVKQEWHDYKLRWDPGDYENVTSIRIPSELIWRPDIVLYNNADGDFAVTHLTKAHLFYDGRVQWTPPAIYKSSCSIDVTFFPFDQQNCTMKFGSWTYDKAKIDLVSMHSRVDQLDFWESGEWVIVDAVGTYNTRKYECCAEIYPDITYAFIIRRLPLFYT
Target sequence in this assay (P12390 25-237 limits assumed, further chain): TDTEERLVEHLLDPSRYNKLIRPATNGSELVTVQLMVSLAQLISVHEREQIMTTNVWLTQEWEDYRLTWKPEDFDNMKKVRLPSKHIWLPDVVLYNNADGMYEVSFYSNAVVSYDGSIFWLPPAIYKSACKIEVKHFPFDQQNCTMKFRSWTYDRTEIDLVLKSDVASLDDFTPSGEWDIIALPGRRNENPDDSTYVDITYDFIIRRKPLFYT

[3] = system: α4β2 nAChRs expressed in Xenopus laevis oocytes; test: Efficacy of agonist A-85380 versus ACh for subunit stoichiometry determination; settings: A-85380 100 nM vs ACh 300 μM; α4β2 mRNA 2:3 ratio
Experimental: To determine whether the α4β2 mutations α4S469Aβ2, α4S471Dβ2, α4T536Aβ2 and α4Y576Aβ2 expressed in Xenopus laevis oocytes assemble in the α4(2):β2(3) or the α4(3):β2(2) stoichiometry, we estimated the efficacy of agonist A-85380 when compared to ACh 300 μM. […] The efficacy of A-85380 in WTα4(2):β2(3) and […] was determined by comparing the macroscopic current elicited by A-85380 100 nM and ACh 300 μM in oocytes microinjected α4β2 mRNA in 1:10 and 10:1 ratios, respectively. The efficacy of A-85380 in α4S469Aβ2, α4S471Dβ2, α4T536Aβ2 and α4Y576Aβ2 was determined by comparing the macroscopic current elicited by A-85380 100 nM and ACh 300 μM in oocytes microinjected α4β2 mRNA in 2:3 ratio. The changes in stoichiometry in these four mutants were assessed by comparing the efficacy of A-85380 in each mutant compared to WTα4(2):β2(3) and WTα4(3):β2(2).

Substance	Nicotine Hill Coef. [1]	Nicotine Peak Current (nA) [1]	Nicotine Peak Current (nA) ([1]; listed as WT)	ACh Hill Coef. [2]	ACh Peak Current (nA) [2]	receptor function with nicotine [1]	Nicotine EC50 (μM) [1]	ACh-induced macroscopic peak current compared with WT [2]	Nicotine sensitivity mark of the mutation [1]	nicotine-induced macroscopic peak current compared with WT [1]	Nicotine Peak Current (nA) ([1]; listed as α4S438D)	efficacy of A-85380 compared with WT injected 2:3 or 1:10 ratio [3]	Nicotine Peak Current (nA) ([1]; listed as α4S469A)	receptor function with ACh [2]	ACh EC50 (μM) [2]
WT α4β2: wild-type rat α4β2 neuronal nicotinic acetylcholine receptor expressed in Xenopus laevis oocytes [reference compound]	1.80	387 ± 66 nA	387±66 nA	1.00	2110 ± 243 nA										
α4S438Aβ2: rat α4β2 nAChR, α4 subunit point mutation S438A, CKII putative phosphorylation site	n/f	n/f		0.49	97 ± 29 nA	non-functional	n/f	significant decreases in the macroscopic peak currents							
α4S438Dβ2: rat α4β2 nAChR, α4 subunit point mutation S438D, CKII putative phosphorylation site	1.29	2156 ± 475 nA		0.68	1938 ± 367 nA			no change in the macroscopic peak current	α4S438Dβ2‡	significant increases in the macroscopic peak currents	2156±475 nA				
α4S469Aβ2: rat α4β2 nAChR, α4 subunit point mutation S469A, CKII putative phosphorylation site	1.84	1552 ± 313 nA		0.87	2222 ± 413 nA			no change in the macroscopic peak current	α4S469Aβ2‡	significant increases in the macroscopic peak currents		no significant difference	1552±313 nA		
α4S469Dβ2: rat α4β2 nAChR, α4 subunit point mutation S469D, CKII putative phosphorylation site	n/f	n/f		n/f	n/f	non-functional	n/f							non-functional	n/f
α4S471Aβ2: rat α4β2 nAChR, α4 subunit point mutation S471A, PKA putative phosphorylation site	n/f	n/f		n/f	n/f		n/f							non-functional	n/f
α4S471Dβ2: rat α4β2 nAChR, α4 subunit point mutation S471D, PKA putative phosphorylation site	2.00	142 ± 313 nA		1.01	1039 ± 139 nA	functional activation by nicotine		significant decrease in macroscopic peak current		significant decrease in the macroscopic peak current		no significant difference			
